Measurements reported in patent publication US20230172894A1, “COMBINATION TREATMENT FOR FUMARATE-RELATED DISEASES” (IMCYSE SA, priority 2020, published 2023).
Structures can show the parent of a compound that is named as a salt. Where two headings read alike, the source gives them in different places.

Tests used:
[1] = test system: experimental auto-immune encephalomyelitis (EAE) development in mice; details: Example 1; for AUC (area under the curve) of EAE scores: day 7 to 28 scoring; for AUC (area under the curve) of EAE scores / end score (clinical EAE score 0-5) / MMS (mean maximal score): vs negative control; for AUC (area under the curve) of EAE scores / disease onset / end score (clinical EAE score 0-5) / MMS (mean maximal score): combination also vs each single treatment; for disease onset / end score (clinical EAE score 0-5): peptide 100 μg/Alum s.c. days −21, −14, −7, BG-12 100 mg/kg p.o. BID days 0 to 27; for disease onset: vs negative control (Saline/Vehicle)
Excerpt: Example 1: Effect of the prophylactic administration of an immunogenic peptide comprising a MOG35-55 MHCII T cell epitope and a HCPYC oxidoreductase motif in combination with dimethyl fumarate (BG-12, […]™) on experimental auto-immune encephalomyelitis (EAE) development in mice.
The study used a total of 64 female C57BL/6 mice (Taconic Biosciences, 10 weeks old on Day 0). Mice were acclimated for 8 days prior to the first injection. Mice were assigned to groups in a balanced manner to achieve similar average weight across the groups at the start of the study.
Treatment 1 was administered once on each of the days indicated in Table 1, s.c., at a volume of 0.05 mL/site, each mouse receiving injection at two sites, for a total of 0.1 mL/mouse/dosing day, corresponding to 100 μg of peptide.
BG-12 was dosed at 100 mg/kg. All dosing was done at the same time (+/−1 hour) each dosing day. For the BID groups there were no less than 10 and no more than 14 hours between doses.
For Treatment 1, 0.9% NaCl solution was prepared at each dosing day. […] (SEQ ID NO: 185), comprising an oxidoreductase motif HCPYC (SEQ ID NO: 71), a linker GW, a murine Myelin Oligodendrocyte Glycoprotein (MOG35-55) MHCII T cell epitope […] (SEQ ID NO: 169) and a flanking sequence HLYR (SEQ ID NO: 186) (Smart Bioscience) was solubilized immediately before use. Lyophilized IMCY-0189 was thawed at room temperature for 10 minutes, resuspended in Na Acetate buffer 50 mM pH 5.4 and incubated at room temperature for 5 minutes. Reconstituted peptide was then mixed with Imject™ Alum Adjuvant before injection.
For Treatment 2, vehicle was 0.5% HPMC, 0.2% Tween 20, and 50 mM citrate buffer at pH 4. BG-12 (or […]™, from Santa Cruz Biotechnology, catalog number sc-239774) was prepared once a week. At each preparation the required amount of BG-12 was weighed out into a mortar and triturated with a pestle. Vehicle was then added in small increments and mixed until the final volume was reached. The material was then vortexed and sonicated in a water bath until a homogeneous suspension was obtained. Formulated BG-12 was stored at 4° C., stirring continuously.
EAE was induced in all mice as follows: • Day 0, Hour 0—Immunization with a peptide corresponding to the amino acids 35-55 of MOG (MOG35-55)/CFA • Day 0, Hour 2—Injection of pertussis toxin • Day 1, Hour 0-2nd injection of pertussis toxin (24 hours after initial immunization).
Mice were injected subcutaneously at two sites in the back with the emulsion component (containing MOG35-55) of Hooke Kit™ MOG35-55/CFA Emulsion PTX, catalog number EK-2110 (lot #127, Hooke Laboratories, Lawrence Mass.). One site of injection was in the area of upper back, approximately 1 cm caudal of the neck line. The second site was in the area of lower back, approximately 2 cm cranial of the base of the tail. The injection volume was 0.1 mL at each site. Each mouse received 200 μg of MOG35-55.
Within 2 hours of the injection of emulsion, and then again 24 hours after the injection of emulsion, the pertussis toxin component of the kit was administered intraperitoneally. The pertussis toxin (lot #1008, Hooke Laboratories) was administered at 100 ng/dose for both injections and the volume of each injection was 0.1 mL.
Animals were scored daily starting from Day 7 to the end of the study. Scoring was performed blind, by a person unaware of both treatment and of previous scores for each mouse. In-between scores were assigned when the clinical signs fell between two above defined scores.
AUC, MMS, inflammation and demyelination, and NF-L levels quantification data were analyzed by performing Ordinary one-way ANOVA. Adjustment for multiplicity was performed using Holm-Sidak's method. Significant differences are referred as follows: *p<0.05, **p<0.01, ***p<0.001, ****p<0.0001.
(§1) EAE development was evaluated by comparing clinical EAE readouts for all groups to the negative control (Saline/Vehicle) group.

[2] = test system: experimental auto-immune encephalomyelitis (EAE) development in mice; details: Example 3; for mice died in group: 16 mice per group
Excerpt: Example 3: Effect of the therapeutic administration of an immunogenic peptide comprising a MOG35-55 MHCII T cell epitope linked to a KCRC (SEQ ID NO: 65) or KCRPYC (SEQ ID NO: 84) oxidoreductase motif in combination with dimethyl fumarate (BG-12, […]™) on experimental auto-immune encephalomyelitis (EAE) development in mice.
The study used a total of 128 female C57BL/6 mice (Taconic Biosciences, 9 weeks old on Day 0). Mice were acclimated for 7 days prior to the first injection. Mice were assigned to groups in a balanced manner to achieve similar average weight across the groups at the start of the study.
Treatment 1 was administered once on each of the days indicated in Table 4, s.c., at a volume of 0.05 mL/site, each mouse receiving injection at two sites, for a total of 0.1 mL/mouse/dosing day. IMCY-0189 (CXXC oxidoreductase motif, IMCY-0453 (CXC oxidoreductase motif) or IMCY-0455 (CXXXC oxidoreductase motif) peptide total dose was 30 μg per administration.
BG-12 was dosed at 100 mg/kg.
All dosing were done at the same time (+/−1 hour) each dosing day. For the BID groups there were no less than 10 and no more than 14 hours between doses.
(SEQ ID NO: 266), comprising an oxidoreductase motif KCRC (SEQ ID NO: 65), a linker GW, a murine Myelin Oligodendrocyte Glycoprotein (MOG35-55) MHCII T cell epitope […] (SEQ ID NO: 169) and a flanking sequence HLYR (SEQ ID NO: 186) (Smart Bioscience) was solubilized immediately before use. Lyophilized IMCY-0453 was thawed at room temperature for 10 minutes, resuspended in Na Acetate buffer 50 mM NaCl 0.9% pH 5.4 and incubated at room temperature for 10 minutes. Reconstituted peptide was then mixed with Imject™ Alum Adjuvant before injection.
(SEQ ID NO: 268), comprising an oxidoreductase motif KCRPYC (SEQ ID NO: 84), a linker GW, a murine Myelin Oligodendrocyte Glycoprotein (MOG35-55) MHCII T cell epitope […] (SEQ ID NO: 169) and a flanking sequence HLYR (SEQ ID NO: 186) (Smart Bioscience) was solubilized immediately before use. Lyophilized IMCY-0455 was thawed at room temperature for 10 minutes, resuspended in Na Acetate buffer 50 mM NaCl 0.9% pH 5.4 and incubated at room temperature for 10 minutes. Reconstituted peptide was then mixed with Imject™ Alum Adjuvant before injection.
Treatment 2 was prepared as described in example 2.
EAE induction, scoring and statistical analysis were performed as described in example
as §1

Molecule | mice died due to severe EAE ([1]; 16 mice per group) [mouse] | mice died in group ([1]; 16 mice per group) | AUC (area under the curve) of EAE scores [1] | disease onset [1] | end score (clinical EAE score 0-5) [1] | MMS (mean maximal score) [1] | mice died in group [2] | disease onset ([2]; peptide 30 μg/Alum s.c. days 4, 9, 14, 19, BG-12 100 mg/kg p.o. BID days 0 to 27, vs negative control) | AUC (area under the curve) of EAE scores ([2]; vs negative control) | MMS (mean maximal score) ([2]; vs negative control) | end score (clinical EAE score 0-5) ([2]; vs negative control)
HCPYCGWYRSPFSRVVHLYR [IMCY-0189] | 1 | 2 mice | statistically significant reduced | postponed disease onset | reduced end score | statistically significant reduced | No mice died | – | – | – | –
COC(=O)/C=C/C(=O)OC [BG-12, dimethyl fumarate, reference compound] | – | No mice died | statistically significant reduced | postponed disease onset | reduced end score | statistically significant reduced | No mice died | postponed disease onset | statistically significant reduced | statistically significant reduced | reduced end score
